The structures appear in SMILES notation.

In the first test the target is T1, Caspase-3 (Homo sapiens, UniProt P42574).
T1 sequence (P42574 whole entry): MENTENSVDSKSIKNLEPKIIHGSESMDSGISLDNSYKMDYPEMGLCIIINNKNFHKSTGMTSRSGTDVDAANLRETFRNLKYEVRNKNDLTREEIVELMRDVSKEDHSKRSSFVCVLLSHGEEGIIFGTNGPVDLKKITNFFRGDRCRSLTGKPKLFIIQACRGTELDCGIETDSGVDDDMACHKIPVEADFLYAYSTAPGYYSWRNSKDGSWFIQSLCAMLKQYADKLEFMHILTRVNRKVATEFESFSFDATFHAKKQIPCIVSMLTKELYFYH
Put plainly: Inhibitory concentration required against human Caspase-3.
Conditions: not given
`O=C[C@H](CC(=O)O)NC(=O)c1ccncc1` showed an IC50 greater than 200 µM.

The subject of the next test is NT2. The test can be described thus: Inhibitory concentration required against NT2 cells. The note with it: Homo sapiens.
`CC(C)CN(CC(C)C)C(=O)c1cncc(C(=O)N[C@@H](CC(=O)O)C(=O)CSCc2ccc(F)cc2)c1` had an IC50 of 39 µM.
Turning to `O=C(O)C[C@H](NC(=O)c1cncc(S(=O)(=O)NC2CC2)c1)C(=O)CNCc1c(F)cccc1F`, the IC50 was 53 µM.
The same measure, in the same setting: the result for `O=C(O)C[C@H](NC(=O)c1cncc(S(=O)(=O)NCc2ccccc2)c1)C(=O)CSCc1ccc(F)cc1` reads 59 µM.
The same measure, in the same setting: to `O=C[C@H](CC(=O)O)NC(=O)c1cncc(S(=O)(=O)NC2CC2)c1` belongs 57 µM.
Regarding `O=C(O)C[C@H](NC(=O)c1cncc(S(=O)(=O)NC2CC2)c1)C(=O)COC(=O)c1cccc2ccccc12`, half-maximal inhibition (IC50) required 1.3 µM.
On the same count and under the same terms, the result for `CN(C1CC1)S(=O)(=O)c1cncc(C(=O)N[C@@H](CC(=O)O)C(=O)CSCc2ccc(F)cc2)c1` reads 22 µM.
As for `O=C(O)C[C@H](NC(=O)c1cncc(S(=O)(=O)NC2CC2)c1)C(=O)Oc1ccccc1`, half-maximal inhibition (IC50) was put at 4.3 µM.
Take `CCCN(CCC)S(=O)(=O)c1cncc(C(=O)N[C@@H](CC(=O)O)C(=O)CSCc2ccc(F)cc2)c1`: inhibition was half-maximal at 25 µM (IC50).
As to `CCN(CC)S(=O)(=O)c1cncc(C(=O)N[C@@H](CC(=O)O)C(=O)CSCc2ccc(F)cc2)c1`, it took 12 µM to reach half-maximal inhibition (IC50).
In turn, `CC(=O)N[C@@H](CC(=O)O)C(=O)N[C@@H](CCC(=O)O)C(=O)N[C@H](C(=O)N[C@H](C=O)CC(=O)O)C(C)C` showed an IC50 greater than 100 µM.
`O=C(O)C[C@H](NC(=O)c1cncc(S(=O)(=O)NC2CC2)c1)C(=O)CSCc1ccc(F)cc1` displayed an IC50 of 8 µM.
In turn, `CCN(C(=O)c1cncc(C(=O)N[C@@H](CC(=O)O)C(=O)CSCc2ccc(F)cc2)c1)C(C)C` returned an IC50 of 16 µM.
In turn, `CCN(CC)C(=O)c1cncc(C(=O)N[C@@H](CC(=O)O)C(=O)CSCc2ccc(F)cc2)c1` yielded an IC50 greater than 100 µM.
Same read-out and setting: to `CN(C)S(=O)(=O)c1cncc(C(=O)N[C@@H](CC(=O)O)C(=O)CSCc2ccc(F)cc2)c1` belongs 21 µM.
Turning to `CCCN(CCC)C(=O)c1cncc(C(=O)N[C@@H](CC(=O)O)C(=O)CSCc2ccc(F)cc2)c1`, the IC50 was greater than 100 µM.

Broadly, the IC50 is the concentration at which inhibition is half-maximal.

The record behind these values is ChEMBL document CHEMBL1136077, “Nicotinyl aspartyl ketones as inhibitors of caspase-3” (Bioorg Med Chem Lett, 2003).
